# In patent US20120282331A1, “MAMMALIAN METABOLITES OF STEROIDS” (TOKAI PHARMACEUTICALS, INC., priority 2009, published 2012):
# Tests used:
# [1] = Metabolic stability in pooled dog liver microsomes; format: in vitro ADME
# Experimental: (§1) The depletion of the parent compound and the formation of metabolites in a time-dependent manner were explored in the presence or absence of an NADPH-generating system.
# (§2) 3β-Hydroxy-17(1H-benzimidazol-1-yl)androsta-5,16-diene is incubated with pooled rat, dog, monkey and human liver microsomes at a protein concentration of 0.6 mg/mL. Incubation mixture contains either 0.1 M potassium phosphate buffer pH 7.4 or the incubation buffer. Following two minutes of pre-incubation of the incubation mixture at ˜37° C., the reaction is started by the addition of an NADPH-generating system (NADPH-GS) (1 mM NADP+, 5 mM glucose-6-phosphate, 1.0 unit/mL glucose-6-phosphate dehydrogenase) or 0.1 M phosphate buffer. At the appropriate time points (0, 15, 30, 60 and 120 minutes), reactions are stopped by the addition of appropriate stop solutions (0.1% formic acid in acetonitrile). The samples are centrifuged at approximately 10 000×g for 10 minutes at 20° C. An amount of supernatant from each sample is transferred to pre-labeled HPLC vials for analysis. Samples are analyzed by LC/MS to monitor the remaining parent compound or formation of potential metabolites. On each occasion, blank sample containing TOK-001 but without microsomes, is included.
# [2] = Solubility in incubation medium; format: physicochemical; settings: presence versus absence of MgCl2/EDTA
# Excerpt: However, the role of the divalent cation, MgCl2 in the activation of the CYP 450 activity is not well defined (Saito et al., 2006, Tamura et al., 1988).
# [3] = Metabolic stability in pooled monkey liver microsomes; format: in vitro ADME; settings: EDTA and MgCl2; for depletion (negative = increase in concentration): absence of NADPH-GS
# Experimental: as §1, §2
# [4] = Metabolic stability in pooled human liver microsomes; format: in vitro ADME
# Experimental: as §1, §2
# [5] = Metabolic stability in pooled rat liver microsomes; format: in vitro ADME
# Experimental: as §1, §2
# [6] = 10 μM, EDTA and MgCl2, up to 60 minutes
# [7] = 10 μM, EDTA and MgCl2, without NADPH-GS, 120 minutes
# [8] = EDTA and MgCl2, up to 120 minutes
structure (smiles),measurement,setting,value
"C[C@]12CC[C@H](O)CC1=CC[C@@H]1[C@@H]2CC[C@]2(C)C(n3cnc4ccccc43)=CC[C@@H]12 [Compound (1), 3β-Hydroxy-17(1H-benzimidazol-1-yl)androsta-5,16-diene]",depletion compared to the 0 minute incubation,"[1]; 10 μM, 0.1 M phosphate buffer only, with NADPH-generating system, 120 minutes",~25%
same,metabolic stability,"[1]; 10 μM, 0.1 M phosphate buffer only, with NADPH-generating system, up to 60 minutes",metabolically stable
same,metabolic stability,[1]; [6],metabolically stable
same,decrease of parent compound in negative control,[1]; [7],~21%
same,metabolic stability,[1]; [8],metabolically stable
same,"recovery at 60 min, 10 μM","[1]; both sexes, dog, pooled dog liver microsomes, 10 μM, phosphate buffer, 1 mM EDTA, 3 mM MgCl2, with NADPH-generating system, 60 minutes, read-out: recovery compared to the 0 minute",~85%
same,dissolution in incubation medium,[2],slightly better in the absence of MgCl2/EDTA
same,depletion (negative = increase in concentration),"[3]; 10 μM, 30 minutes",~−14%
same,depletion (negative = increase in concentration),"[3]; 10 μM, 120 minutes",~−12%
same,depletion of parent compound,"[3]; 10 μM, with NADPH-GS, 30 minutes",~16%
same,metabolic stability,[3]; up to 120 minutes,less stable
same,depletion of parent compound,"[4]; 10 μM, EDTA and MgCl2, absence of NADPH-GS",~7%
same,depletion of parent compound,"[4]; 10 μM, EDTA and MgCl2, with NADPH-generating system, over 120 minutes",≤ 11%
same,metabolized (depletion),"[4]; 0.1 M phosphate buffer only, NADPH and time-dependent",≥ 50%
same,metabolic stability,[4]; [8],metabolically stable
same,"recovery at 120 min, 10 μM","[4]; both sexes, human, pooled human liver microsomes, 10 μM, phosphate buffer, 1 mM EDTA, 3 mM MgCl2, with NADPH-generating system, over 120 minutes",~89%
same,metabolic stability,[5]; [6],metabolically stable
same,depletion of parent compound,"[5]; 10 μM, EDTA and MgCl2, with NADPH-GS, 120 minutes",~21%
same,change of parent compound in negative control,[5]; [7],slight increase
same,metabolic stability,[5]; [8],metabolically stable
same,"recovery at 120 min, 10 μM","[5]; both sexes, rat, pooled rat liver microsomes, pH 7.4, 10 μM, 0.1 M phosphate buffer only, with NADPH-generating system, 120 minutes, read-out: recovery compared to the 0 minute incubation",~86%
same,"recovery at 60 min, 10 μM","[5]; both sexes, rat, pooled rat liver microsomes, 10 μM, phosphate buffer, 1 mM EDTA, 3 mM MgCl2, with NADPH-generating system, 60 minutes, read-out: recovery compared to the 0 minute incubation",~85%
same,"recovery at 120 min, 10 μM","[5]; both sexes, rat, pooled rat liver microsomes, 10 μM, phosphate buffer, 1 mM EDTA, 3 mM MgCl2, with NADPH-generating system, 120 minutes, read-out: recovery compared to the 0 minute",~79%
